According to publication PMC10671849, “Synthesis and Evaluation of Marine-Inspired Compounds Result in Hybrids with Antitrypanosomal and Antileishmanial Activities” (Marine Drugs, 2023):
Read-outs that look alike come from different tables or passages of the source.

Tests used:
[1] = test system: T. brucei Lister 427 bloodstream forms; assay: Anti-T. brucei activity, resazurin-based assay on bloodstream forms; type: cell-based, Trypanosoma brucei; details: Trypanosoma brucei; bloodstream forms, 72 h incubation, resazurin; read-out: Anti-Parasitic Activity IC50 (µM) 95% CI, T. brucei
Procedure: T. brucei Lister 427 bloodstream forms were grown in a humidified incubator at 37 °C and 5% CO2 in complete HMI-9 medium supplemented with 10% heat-inactivated fetal bovine serum (FBS) and 100 UI/mL penicillin/streptomycin. Parasite maintenance was performed in T25 ventilated flasks by subpassage at a concentration of 1 × 10^4/mL every 2 days in T25 ventilated flasks. Luciferase-expressing L. infantum (MHOM/MA/67/ITMAP-263) axenic amastigotes expressing episomal luciferase were maintained in MAA20 [31] at 37 °C in a 5% CO2 environment with subculture every 7 days at 1 × 10^6/mL in 5-mL T25 ventilated flasks.
The compounds’ efficacy against bloodstream-stage trypomastigotes was evaluated using a resazurin-based assay. Parasites were added to 100 µL of serial dilutions of compounds in supplemented complete medium at a cell density of 5 × 10^3/mL. As a quality control, a dose–response curve for the antitrypanosomal pentamidine was included in all the assays. The final volume of the assay was 200 µL/well. Each condition was carried out in duplicate. Following 72 h of incubation at the specific conditions for parasites, 20 […] of a 0.5 mM resazurin solution was added, and the plates were incubated for a further 4 h under the same conditions. Fluorescence was measured at 544 nm and 590 nm excitation and emission wavelength, respectively, using a Synergy 2 Multi-Mode Reader (Biotek, Winooski, VT, USA). The results are shown as % of parasite growth inhibition compared to control (untreated parasites) and represent the average of at least three independent experiments. The effect was evaluated by the determination of the IC50 value (concentration required to inhibit growth in 50%) and calculated by non-linear regression curves using GraphPad Prism software, version 8.1.1 for Windows (GraphPad Software, San Diego, CA, USA).

[2] = Cytotoxicity MTT assay on PMA-differentiated THP-1 macrophages; type: cell-based; details: human
Procedure: A human leukemia cell line, THP-1 (ATCC® TIB-202™), was cultured in RPMI-1640 medium supplemented with 10% heat-inactivated fetal bovine serum (FBS), 2 mM L-glutamine, 100 IU/mL penicillin/streptomycin, and 20 mM HEPES. The cell line was maintained in a humidified incubator at 37 °C and 5% CO2 by subculture every 3 days in 20 mL of media at a concentration of 2 × 10^5/mL in a T75 flask. All cell culture reagents were purchased from Lonza-Bioscience (Morrisville, NC, USA).
The cytotoxicity effect of compounds on THP-1-derived macrophages was assessed by colorimetric MTT assay (3-(4,5-dimethylthiazol-2-yl)-2,5-diphenyl tetrazolium bromide). Briefly, THP-1 cells were suspended in RPMI complete medium at a density of 1 × 10^6 cells/mL and 100 μL/well and were seeded in a 96-well plate and differentiated into macrophages by addition of 40 ng/mL of phorbol-myristate 13-acetate (PMA, Sigma, Saint Louis, MI, USA) for 24 h, followed by replacement with fresh medium for 24 more h. Subsequently, the cells were incubated with 100 μL of compounds ranging from 100 to 12.5 μM after dilution in the RPMI complete medium. Each condition was carried out in quadruplicate. After 72 h of incubation at 37 °C and 5% CO2, the medium was removed, and 200 μL of 0.5 mg/mL MTT solution diluted in RPMI was added. The plates were incubated for an additional 4 h. Then, 160 μL of media was removed, and the same volume of 2-propanol was added. Absorbance was read at 570 nm using a Synergy 2 Multi-Mode Reader (Biotek, Winooski, VT, USA). Cytotoxicity was evaluated by the determination of the CC50 value (drug concentration that reduced the percentage of viable cells by 50%) and calculated by non-linear regression analysis using GraphPad Prism software, version 8.1.1 for Windows (GraphPad Software, San Diego, CA, USA). The results represent the average of at least three independent experiments. For each compound, the selectivity index (SI) was calculated as the ratio between cytotoxicity in THP-1 (CC50, 72 h) and activity against parasites (IC50, 72 h).

[3] = test system: L. infantum promastigotes; assay: Anti-Leishmania activity, resazurin-based assay; type: cell-based; details: 72 h incubation, resazurin, highest concentration tested 40 µM, 95% CI in parentheses, read-out: Anti-Parasitic Activity IC50 (µM) 95% CI, L. infantum Promastigotes
Procedure: Promastigotes from the L. infantum strain (MHOM/MA/67/ITMAP-263) were grown in 5-mL T25 flasks in Schneider’s insect medium supplemented with 10% heat-inactivated fetal bovine serum (FBS), 200 U/mL penicillin/streptomycin, 6 µg/mL Phenol Red, and 5 mM HEPES. The cultures were maintained in an incubator at 27 °C and diluted to 2 × 10^5/mL every 5 days. For the assays, the parasites used were equivalent to late/log with 2 or 3 days of culture.
The compounds’ efficacy against L. infantum promastigotes was evaluated using a resazurin-based assay. Parasites were added to 100 µL of serial dilutions of compounds in supplemented complete medium at a cell density of 5 × 10^5/mL. As a quality control, a dose–response curve to the antileishmanial drug miltefosine was included in all the assays. The final volume of the assay was 200 µL/well. Each condition was carried out in duplicate. Following 72 h of incubation at the specific conditions for parasites, 20 µL of a 0.5 mM resazurin solution was added, and the plates were incubated for a further 4 h under the same conditions. Fluorescence was measured at 544 nm and 590 nm excitation and emission wavelengths, respectively, using a Synergy 2 Multi-Mode Reader (Biotek, Winooski, VT, USA). Results are shown as % of parasite growth inhibition compared to control (untreated parasites) and represent the average of at least three independent experiments. The effect was evaluated by the determination of the IC50 value (concentration required to inhibit growth in 50%) and was calculated by non-linear regression curves using GraphPad Prism software, version 8.1.1 for Windows (GraphPad Software, San Diego, CA, USA).

Row | Structure (SMILES) | IC50 [1] [µM] | CC50 at 72 h [2] [µM] | CC50 at 72 h ([2]; PMA-differentiated THP-1 macrophages, 72 h, MTT, 100 to 12.5 µM tested, read-out: Cytotoxicity CC50 (µM) 95% CI, THP-1) [µM] | IC50 [3] [µM]
1 | N=C(N)c1ccc(OCCCCCOc2ccc(C(=N)N)cc2)cc1 [Pentamidine, pentamidine, reference compound] | 0.0056 | 37.7 | – | –
2 | CCCCCCCCCCCCCCCCOP(=O)([O-])OCC[N+](C)(C)C [Miltefosine, miltefosine, reference compound] | – | – | 29.4 | 11
